Reference: patent US20090099029A1, “Methods and substrates for conducting assays” (Invitrogen Corporation, priority 2005, published 2009)
Like-named read-outs stand apart in the source and are kept apart here.

How the values were obtained:
Assay in all cases: Further analysis of a plurality of inhibitors and a plurality of kinases (Table 5 inhibition results)
Type in all cases: biochemical
Parameters in all cases: scale not given here
kinases of Table 5 [1] = target: kinases of Table 5 (Homo sapiens, UniProt Q00536); details: kinase PCTK1 (Part I, plate A3, Domain 0); inhibitor 100 uM
Source text: (§1) The wash solution is then discarded.

kinases of Table 5 [2] = target: kinases of Table 5 (Homo sapiens, UniProt P37173); details: kinase TGFBR2 (Part I, plate C7, Domain 1)
Source text: as §1

kinases of Table 5 [3] = target: kinases of Table 5 (Homo sapiens, UniProt P00519); details: for Inhibition level: kinase ABL1
Source text: as §1

kinases of Table 5 [4] = target: T1, kinases of Table 5 (Homo sapiens, UniProt Q9UQB9); details: kinase STK13 (Part I, plate G11, Domain 1); inhibitor 100 uM
T1 sequence (Q9UQB9 1-309): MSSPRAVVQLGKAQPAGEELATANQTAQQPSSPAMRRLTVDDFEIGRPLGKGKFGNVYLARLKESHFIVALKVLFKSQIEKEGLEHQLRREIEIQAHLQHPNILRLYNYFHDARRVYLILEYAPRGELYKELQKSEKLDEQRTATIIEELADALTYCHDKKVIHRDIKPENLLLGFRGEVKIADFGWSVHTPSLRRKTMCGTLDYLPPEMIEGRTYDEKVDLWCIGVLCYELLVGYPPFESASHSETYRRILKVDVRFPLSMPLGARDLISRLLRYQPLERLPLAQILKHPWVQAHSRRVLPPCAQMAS
Source text: as §1

kinases of Table 5 [5] = target: kinases of Table 5 (Homo sapiens, UniProt Q13627); details: kinase DYRK1A (Part I, plate G6, Domain 1)
Source text: as §1

kinases of Table 5 [6] = target: kinases of Table 5 (Homo sapiens, UniProt P06239); details: kinase LCK (Part I, plate A6, Domain 0)
Source text: as §1

kinases of Table 5 [7] = target: kinases of Table 5 (Homo sapiens, UniProt O75914); details: for Inhibition level: kinase PAK3; for Inhibition Results (Level): kinase PAK3 (Part II, plate D4, Domain 1)
Source text: as §1

kinases of Table 5 [8] = target: kinases of Table 5 (Homo sapiens, UniProt Q9Y6R4); details: kinase MAP3K4 (Part I, plate E7, Domain 1); inhibitor 100 uM
Source text: as §1

kinases of Table 5 [9] = target: kinases of Table 5 (Homo sapiens, UniProt Q13557)
Source text: as §1

kinases of Table 5 [10] = target: T2, kinases of Table 5 (Homo sapiens, UniProt P29323); details: kinase EPHB2 (Part I, plate E5, Domain 1)
T2 sequence (P29323 19-1055): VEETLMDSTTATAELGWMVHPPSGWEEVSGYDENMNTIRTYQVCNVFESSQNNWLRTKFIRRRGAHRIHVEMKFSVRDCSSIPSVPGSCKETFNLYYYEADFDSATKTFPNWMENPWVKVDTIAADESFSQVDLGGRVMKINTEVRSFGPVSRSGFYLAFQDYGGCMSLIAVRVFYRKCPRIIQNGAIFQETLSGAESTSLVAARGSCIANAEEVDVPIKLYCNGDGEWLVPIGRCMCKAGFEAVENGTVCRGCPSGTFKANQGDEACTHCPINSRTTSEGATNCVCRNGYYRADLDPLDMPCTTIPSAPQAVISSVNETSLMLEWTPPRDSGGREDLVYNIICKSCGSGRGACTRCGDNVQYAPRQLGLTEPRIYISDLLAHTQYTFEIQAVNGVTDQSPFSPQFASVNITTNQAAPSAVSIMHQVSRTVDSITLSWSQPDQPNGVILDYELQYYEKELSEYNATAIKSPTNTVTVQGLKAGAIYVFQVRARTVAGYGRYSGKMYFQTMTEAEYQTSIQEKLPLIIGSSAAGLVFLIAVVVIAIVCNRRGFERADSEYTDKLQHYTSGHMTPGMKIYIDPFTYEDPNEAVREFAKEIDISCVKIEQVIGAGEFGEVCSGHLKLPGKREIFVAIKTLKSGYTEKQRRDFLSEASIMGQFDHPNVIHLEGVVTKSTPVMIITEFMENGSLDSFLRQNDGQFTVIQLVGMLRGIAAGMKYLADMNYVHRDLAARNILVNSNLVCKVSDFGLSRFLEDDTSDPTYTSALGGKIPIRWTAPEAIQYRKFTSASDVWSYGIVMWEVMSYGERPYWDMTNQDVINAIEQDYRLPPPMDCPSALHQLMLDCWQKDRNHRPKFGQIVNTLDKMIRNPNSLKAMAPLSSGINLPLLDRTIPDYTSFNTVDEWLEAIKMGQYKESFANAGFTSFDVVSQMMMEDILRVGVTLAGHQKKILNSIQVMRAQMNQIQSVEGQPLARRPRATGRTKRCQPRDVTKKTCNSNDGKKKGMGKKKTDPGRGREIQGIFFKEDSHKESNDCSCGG
Source text: as §1

kinases of Table 5 [11] = target: T3, kinases of Table 5 (Homo sapiens, UniProt Q8IV63); details: kinase LOC51231 (Part I, plate C12, Domain 1)
T3 sequence (Q8IV63 1-474): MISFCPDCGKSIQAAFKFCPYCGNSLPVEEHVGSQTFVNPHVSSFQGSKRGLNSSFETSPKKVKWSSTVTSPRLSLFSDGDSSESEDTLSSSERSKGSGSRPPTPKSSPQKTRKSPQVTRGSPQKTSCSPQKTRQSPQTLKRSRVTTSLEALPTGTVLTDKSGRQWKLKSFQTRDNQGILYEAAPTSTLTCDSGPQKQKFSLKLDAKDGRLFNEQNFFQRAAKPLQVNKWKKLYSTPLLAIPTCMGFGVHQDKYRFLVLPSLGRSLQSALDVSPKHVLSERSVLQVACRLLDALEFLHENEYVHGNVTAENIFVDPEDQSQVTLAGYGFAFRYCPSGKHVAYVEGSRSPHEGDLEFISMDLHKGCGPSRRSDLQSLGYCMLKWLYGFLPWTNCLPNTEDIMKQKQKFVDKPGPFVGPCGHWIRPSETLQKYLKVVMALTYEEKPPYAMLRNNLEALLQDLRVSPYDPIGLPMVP
Source text: as §1

[12] = kinase CAMK2D, inhibitor 100 uM
[13] = kinase CAMK2D, concentration not given

Sequence of kinases of Table 5 (Homo sapiens, UniProt P06239) (P06239 whole entry): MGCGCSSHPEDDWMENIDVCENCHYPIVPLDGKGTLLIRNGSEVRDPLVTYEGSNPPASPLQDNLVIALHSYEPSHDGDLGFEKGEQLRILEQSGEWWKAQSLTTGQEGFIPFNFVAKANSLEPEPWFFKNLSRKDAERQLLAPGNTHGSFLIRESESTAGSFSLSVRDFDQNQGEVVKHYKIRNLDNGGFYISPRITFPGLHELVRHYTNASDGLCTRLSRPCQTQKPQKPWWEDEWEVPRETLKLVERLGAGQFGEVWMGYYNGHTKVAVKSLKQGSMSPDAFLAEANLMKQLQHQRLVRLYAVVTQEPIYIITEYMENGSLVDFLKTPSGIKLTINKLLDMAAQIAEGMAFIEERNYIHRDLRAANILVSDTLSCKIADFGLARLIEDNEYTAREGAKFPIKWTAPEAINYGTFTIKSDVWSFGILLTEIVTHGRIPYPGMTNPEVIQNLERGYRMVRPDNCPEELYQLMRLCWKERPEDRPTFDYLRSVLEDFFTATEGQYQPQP
Sequence of kinases of Table 5 (Homo sapiens, UniProt Q13557) (Q13557 whole entry): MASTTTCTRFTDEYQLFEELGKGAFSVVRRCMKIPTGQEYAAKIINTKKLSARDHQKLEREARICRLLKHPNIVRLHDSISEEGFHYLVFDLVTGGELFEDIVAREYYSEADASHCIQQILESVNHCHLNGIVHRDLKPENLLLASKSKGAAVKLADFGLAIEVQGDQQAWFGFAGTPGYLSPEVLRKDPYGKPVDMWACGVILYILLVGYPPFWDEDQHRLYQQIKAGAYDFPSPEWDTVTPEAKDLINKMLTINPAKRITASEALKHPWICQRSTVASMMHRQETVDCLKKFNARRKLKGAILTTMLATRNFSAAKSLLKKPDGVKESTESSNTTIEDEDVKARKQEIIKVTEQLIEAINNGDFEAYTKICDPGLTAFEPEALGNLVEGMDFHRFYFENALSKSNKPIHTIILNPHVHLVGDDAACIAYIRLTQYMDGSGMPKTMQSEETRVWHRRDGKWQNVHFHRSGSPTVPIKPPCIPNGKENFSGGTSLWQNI
Sequence of kinases of Table 5 (Homo sapiens, UniProt Q9Y6R4) (Q9Y6R4 whole entry): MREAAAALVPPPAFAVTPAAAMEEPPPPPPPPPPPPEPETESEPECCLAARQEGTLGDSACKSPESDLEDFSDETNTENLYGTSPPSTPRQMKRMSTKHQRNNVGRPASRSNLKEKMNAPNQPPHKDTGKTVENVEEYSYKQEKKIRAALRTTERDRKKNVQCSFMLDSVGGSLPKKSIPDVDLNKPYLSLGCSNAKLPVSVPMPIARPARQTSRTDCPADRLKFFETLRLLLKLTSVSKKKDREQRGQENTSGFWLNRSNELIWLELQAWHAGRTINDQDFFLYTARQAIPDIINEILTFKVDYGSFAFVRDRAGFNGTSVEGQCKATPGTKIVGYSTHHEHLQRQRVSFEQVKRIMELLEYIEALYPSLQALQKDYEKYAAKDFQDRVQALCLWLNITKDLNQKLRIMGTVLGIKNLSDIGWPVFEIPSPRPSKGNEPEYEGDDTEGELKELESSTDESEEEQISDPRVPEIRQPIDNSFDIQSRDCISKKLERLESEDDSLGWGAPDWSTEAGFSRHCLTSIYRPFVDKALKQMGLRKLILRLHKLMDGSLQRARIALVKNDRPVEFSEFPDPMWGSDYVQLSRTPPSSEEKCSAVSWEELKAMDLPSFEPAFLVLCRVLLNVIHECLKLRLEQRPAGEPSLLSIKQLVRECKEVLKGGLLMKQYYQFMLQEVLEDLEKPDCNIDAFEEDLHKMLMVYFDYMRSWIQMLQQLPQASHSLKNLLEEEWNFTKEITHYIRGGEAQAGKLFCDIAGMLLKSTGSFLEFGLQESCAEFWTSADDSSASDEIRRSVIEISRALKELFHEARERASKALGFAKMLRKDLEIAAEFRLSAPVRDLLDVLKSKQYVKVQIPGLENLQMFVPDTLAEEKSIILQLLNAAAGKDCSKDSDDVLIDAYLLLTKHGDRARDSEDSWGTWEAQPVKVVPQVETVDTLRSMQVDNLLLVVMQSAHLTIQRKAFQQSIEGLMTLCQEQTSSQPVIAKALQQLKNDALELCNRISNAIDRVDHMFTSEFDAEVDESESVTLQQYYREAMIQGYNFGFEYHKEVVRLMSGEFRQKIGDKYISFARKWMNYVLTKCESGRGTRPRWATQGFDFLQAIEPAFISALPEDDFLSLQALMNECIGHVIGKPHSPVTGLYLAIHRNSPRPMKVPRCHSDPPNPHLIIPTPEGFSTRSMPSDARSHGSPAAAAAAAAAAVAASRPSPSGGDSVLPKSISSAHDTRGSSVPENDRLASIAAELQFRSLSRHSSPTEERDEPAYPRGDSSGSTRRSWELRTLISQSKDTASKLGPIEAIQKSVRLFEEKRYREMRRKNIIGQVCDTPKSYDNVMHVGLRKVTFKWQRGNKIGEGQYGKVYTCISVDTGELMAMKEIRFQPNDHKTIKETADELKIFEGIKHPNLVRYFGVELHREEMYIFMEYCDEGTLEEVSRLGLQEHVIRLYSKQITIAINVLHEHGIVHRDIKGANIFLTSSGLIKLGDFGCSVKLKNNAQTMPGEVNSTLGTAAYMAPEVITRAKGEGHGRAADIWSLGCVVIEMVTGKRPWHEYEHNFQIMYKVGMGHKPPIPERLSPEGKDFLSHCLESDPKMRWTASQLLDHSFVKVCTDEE
Sequence of kinases of Table 5 (Homo sapiens, UniProt Q00536) (Q00536 whole entry): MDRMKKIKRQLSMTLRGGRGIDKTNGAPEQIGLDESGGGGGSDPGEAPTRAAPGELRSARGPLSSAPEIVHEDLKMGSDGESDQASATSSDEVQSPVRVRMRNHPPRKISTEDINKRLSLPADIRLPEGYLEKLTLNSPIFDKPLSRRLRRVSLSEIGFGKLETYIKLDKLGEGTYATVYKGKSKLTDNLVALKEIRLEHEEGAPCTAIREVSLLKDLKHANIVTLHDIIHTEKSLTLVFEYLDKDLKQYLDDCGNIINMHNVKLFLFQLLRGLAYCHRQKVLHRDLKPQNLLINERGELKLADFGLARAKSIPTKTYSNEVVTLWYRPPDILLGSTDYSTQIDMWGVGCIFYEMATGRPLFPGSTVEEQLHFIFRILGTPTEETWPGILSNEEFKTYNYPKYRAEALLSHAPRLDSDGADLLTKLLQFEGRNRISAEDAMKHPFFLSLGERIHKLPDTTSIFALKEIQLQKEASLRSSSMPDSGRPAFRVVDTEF
Sequence of kinases of Table 5 (Homo sapiens, UniProt P00519) (P00519 whole entry): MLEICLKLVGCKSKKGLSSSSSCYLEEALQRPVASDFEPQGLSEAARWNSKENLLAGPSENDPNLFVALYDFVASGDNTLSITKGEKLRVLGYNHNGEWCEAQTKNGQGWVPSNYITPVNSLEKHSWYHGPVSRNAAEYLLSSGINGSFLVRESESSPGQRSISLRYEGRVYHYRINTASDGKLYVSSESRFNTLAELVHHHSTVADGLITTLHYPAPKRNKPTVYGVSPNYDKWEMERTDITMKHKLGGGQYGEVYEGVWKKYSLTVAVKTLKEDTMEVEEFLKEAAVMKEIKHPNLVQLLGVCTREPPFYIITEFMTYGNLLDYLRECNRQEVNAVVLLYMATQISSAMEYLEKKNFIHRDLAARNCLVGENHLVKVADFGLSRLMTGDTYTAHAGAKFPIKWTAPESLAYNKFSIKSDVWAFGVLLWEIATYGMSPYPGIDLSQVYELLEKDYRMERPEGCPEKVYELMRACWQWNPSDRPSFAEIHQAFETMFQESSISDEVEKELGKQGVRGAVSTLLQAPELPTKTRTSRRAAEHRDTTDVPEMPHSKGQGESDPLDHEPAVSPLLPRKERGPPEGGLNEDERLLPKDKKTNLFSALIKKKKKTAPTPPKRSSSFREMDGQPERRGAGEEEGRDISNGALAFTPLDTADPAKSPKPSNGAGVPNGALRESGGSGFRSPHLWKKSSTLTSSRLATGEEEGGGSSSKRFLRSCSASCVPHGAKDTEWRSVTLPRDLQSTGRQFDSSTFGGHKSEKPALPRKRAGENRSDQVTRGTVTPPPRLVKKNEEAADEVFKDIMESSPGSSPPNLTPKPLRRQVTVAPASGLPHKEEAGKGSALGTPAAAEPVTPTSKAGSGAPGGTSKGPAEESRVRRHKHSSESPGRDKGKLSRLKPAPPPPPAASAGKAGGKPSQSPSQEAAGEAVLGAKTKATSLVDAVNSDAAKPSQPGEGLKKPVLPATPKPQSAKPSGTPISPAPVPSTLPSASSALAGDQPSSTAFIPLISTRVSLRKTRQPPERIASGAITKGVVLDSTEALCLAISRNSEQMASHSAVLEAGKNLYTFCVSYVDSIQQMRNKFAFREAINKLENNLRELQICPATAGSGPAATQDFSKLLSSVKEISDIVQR
Sequence of kinases of Table 5 (Homo sapiens, UniProt O75914) (O75914 whole entry): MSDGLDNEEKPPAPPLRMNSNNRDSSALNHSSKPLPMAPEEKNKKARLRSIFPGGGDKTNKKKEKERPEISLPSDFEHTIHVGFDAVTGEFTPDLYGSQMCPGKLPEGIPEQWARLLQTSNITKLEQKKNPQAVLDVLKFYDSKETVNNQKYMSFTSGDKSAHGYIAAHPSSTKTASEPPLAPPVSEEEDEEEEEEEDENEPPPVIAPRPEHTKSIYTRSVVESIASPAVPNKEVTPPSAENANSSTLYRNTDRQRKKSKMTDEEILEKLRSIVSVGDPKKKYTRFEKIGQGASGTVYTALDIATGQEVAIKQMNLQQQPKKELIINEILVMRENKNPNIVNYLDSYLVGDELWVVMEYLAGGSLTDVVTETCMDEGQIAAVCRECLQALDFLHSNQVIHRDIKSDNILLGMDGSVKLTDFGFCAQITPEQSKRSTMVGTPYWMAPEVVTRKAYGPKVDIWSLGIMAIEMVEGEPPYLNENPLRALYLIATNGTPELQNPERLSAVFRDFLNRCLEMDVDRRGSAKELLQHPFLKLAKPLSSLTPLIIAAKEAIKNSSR

Compound: N#C/C(=C/c1ccc(O)c(O)c1)C(=O)NCc1ccccc1 [AG 490]
- Inhibition Results (Level) (kinases of Table 5 [1]): 0
- Inhibition Results (Level) (kinases of Table 5 [2]; inhibitor 100 uM): 2
- Inhibition level (kinases of Table 5 [3]; inhibitor 100 uM): 0
- Inhibition Results (Level) (kinases of Table 5 [4]): 2
- Inhibition Results (Level) (kinases of Table 5 [5]; inhibitor 100 uM): 2
- Inhibition Results (Level) (kinases of Table 5 [6]; inhibitor 100 uM): 2
- Inhibition level (kinases of Table 5 [7]; inhibitor 100 uM): 1
- Inhibition Results (Level) (kinases of Table 5 [8]): 2
- Inhibition level (kinases of Table 5 [9]; [12]): 2
- Inhibition Results (Level) (kinases of Table 5 [10]; inhibitor 100 uM): 2
- Inhibition Results (Level) (kinases of Table 5 [11]; inhibitor 100 uM): 0

Compound: COc1cc2ncnc(Nc3cccc(Cl)c3)c2cc1OC [AG 1478]
- Inhibition Results (Level) (kinases of Table 5 [1]): 0
- Inhibition Results (Level) (kinases of Table 5 [2]; inhibitor 100 uM): 2
- Inhibition level (kinases of Table 5 [3]; inhibitor 100 uM): 1
- Inhibition Results (Level) (kinases of Table 5 [4]): 1
- Inhibition Results (Level) (kinases of Table 5 [5]; inhibitor 100 uM): 0
- Inhibition Results (Level) (kinases of Table 5 [6]; inhibitor 100 uM): 2
- Inhibition level (kinases of Table 5 [7]; inhibitor 100 uM): 2
- Inhibition Results (Level) (kinases of Table 5 [8]): 1
- Inhibition level (kinases of Table 5 [9]; [12]): 2
- Inhibition Results (Level) (kinases of Table 5 [10]; inhibitor 100 uM): 2
- Inhibition Results (Level) (kinases of Table 5 [11]; inhibitor 100 uM): 0

Compound: O=c1c(-c2ccc(O)cc2)coc2cc(O)cc(O)c12 [Genistein]
- Inhibition Results (Level) (kinases of Table 5 [1]): 1
- Inhibition Results (Level) (kinases of Table 5 [2]; inhibitor 100 uM): 2
- Inhibition Results (Level) (kinases of Table 5 [2]; inhibitor <3.7 mM): 1
- Inhibition level (kinases of Table 5 [3]; concentration not given): 0
- Inhibition level (kinases of Table 5 [3]; inhibitor 100 uM): 0
- Inhibition Results (Level) (kinases of Table 5 [4]): 2
- Inhibition Results (Level) (kinases of Table 5 [5]; inhibitor 100 uM): 2
- Inhibition Results (Level) (kinases of Table 5 [5]; inhibitor <3.7 mM): 1
- Inhibition Results (Level) (kinases of Table 5 [6]; inhibitor 100 uM): 2
- Inhibition Results (Level) (kinases of Table 5 [6]; inhibitor <3.7 mM): 0
- Inhibition level (kinases of Table 5 [7]; concentration not given): 0
- Inhibition level (kinases of Table 5 [7]; inhibitor 100 uM): 2
- Inhibition Results (Level) (kinases of Table 5 [8]): 1
- Inhibition level (kinases of Table 5 [9]; [13]): 0
- Inhibition level (kinases of Table 5 [9]; [12]): 2
- Inhibition Results (Level) (kinases of Table 5 [10]; inhibitor 100 uM): 2
- Inhibition Results (Level) (kinases of Table 5 [10]; inhibitor <3.7 mM): 0
- Inhibition Results (Level) (kinases of Table 5 [11]; inhibitor 100 uM): 2
- Inhibition Results (Level) (kinases of Table 5 [11]; inhibitor <3.7 mM): 0

Compound: O=S(=O)(NCCNC/C=C/c1ccc(Br)cc1)c1cccc2cnccc12 [H-89]
- Inhibition Results (Level) (kinases of Table 5 [1]): 2
- Inhibition Results (Level) (kinases of Table 5 [2]; inhibitor 100 uM): 2
- Inhibition Results (Level) (kinases of Table 5 [3]; kinase ABL1 (Part II, plate B6, Domain 1), inhibitor 100 uM): 0
- Inhibition Results (Level) (kinases of Table 5 [4]): 1
- Inhibition Results (Level) (kinases of Table 5 [5]; inhibitor 100 uM): 2
- Inhibition Results (Level) (kinases of Table 5 [6]; inhibitor 100 uM): 2
- Inhibition Results (Level) (kinases of Table 5 [7]; inhibitor 100 uM): 2
- Inhibition Results (Level) (kinases of Table 5 [8]): 1
- Inhibition level (kinases of Table 5 [9]; [12]): 0
- Inhibition Results (Level) (kinases of Table 5 [10]; inhibitor 100 uM): 2
- Inhibition Results (Level) (kinases of Table 5 [11]; inhibitor 100 uM): 2

Compound: CC(C)(C)n1nc(-c2ccc(Cl)cc2)c2c(N)ncnc21 [PP2]
- Inhibition Results (Level) (kinases of Table 5 [1]): 1
- Inhibition Results (Level) (kinases of Table 5 [2]; inhibitor 100 uM): 2
- Inhibition Results (Level) (kinases of Table 5 [4]): 2
- Inhibition Results (Level) (kinases of Table 5 [5]; inhibitor 100 uM): 1
- Inhibition level (kinases of Table 5 [7]; inhibitor 100 uM): 2
- Inhibition Results (Level) (kinases of Table 5 [8]): 2
- Inhibition level (kinases of Table 5 [9]; [12]): 2
- Inhibition Results (Level) (kinases of Table 5 [10]; inhibitor 100 uM): 2
- Inhibition Results (Level) (kinases of Table 5 [11]; inhibitor 100 uM): 0

Compound: O=c1c(O)c(-c2ccc(O)c(O)c2)oc2cc(O)cc(O)c12 [Quercetin]
- Inhibition Results (Level) (kinases of Table 5 [1]): 0
- Inhibition Results (Level) (kinases of Table 5 [2]; inhibitor 100 uM): 0
- Inhibition Results (Level) (kinases of Table 5 [4]): 2
- Inhibition Results (Level) (kinases of Table 5 [7]; inhibitor 100 uM): 2
- Inhibition Results (Level) (kinases of Table 5 [8]): 0
- Inhibition Results (Level) (kinases of Table 5 [10]; inhibitor 100 uM): 2
- Inhibition Results (Level) (kinases of Table 5 [11]; inhibitor 100 uM): 0

Compound: Cn1cc(C2=C(c3cn(CCCSC(=N)N)c4ccccc34)C(=O)NC2=O)c2ccccc21 [Ro-31-8220]
- Inhibition Results (Level) (kinases of Table 5 [1]): 0
- Inhibition Results (Level) (kinases of Table 5 [2]; inhibitor 90 uM): 2
- Inhibition Results (Level) (kinases of Table 5 [2]; inhibitor 100 uM): 2
- Inhibition level (kinases of Table 5 [3]; concentration not given): 0
- Inhibition level (kinases of Table 5 [3]; inhibitor 100 uM): 2
- Inhibition Results (Level) (kinases of Table 5 [4]): 2
- Inhibition Results (Level) (kinases of Table 5 [5]; inhibitor 90 uM): 0
- Inhibition Results (Level) (kinases of Table 5 [5]; inhibitor 100 uM): 2
- Inhibition Results (Level) (kinases of Table 5 [6]; inhibitor 90 uM): 0
- Inhibition Results (Level) (kinases of Table 5 [6]; inhibitor 100 uM): 2
- Inhibition level (kinases of Table 5 [7]; concentration not given): 2
- Inhibition level (kinases of Table 5 [7]; inhibitor 100 uM): 2
- Inhibition Results (Level) (kinases of Table 5 [8]): 2
- Inhibition level (kinases of Table 5 [9]; [13]): 2
- Inhibition level (kinases of Table 5 [9]; [12]): 0
- Inhibition Results (Level) (kinases of Table 5 [10]; inhibitor 90 uM): 0
- Inhibition Results (Level) (kinases of Table 5 [10]; inhibitor 100 uM): 2
- Inhibition Results (Level) (kinases of Table 5 [11]; inhibitor 90 uM): 0
- Inhibition Results (Level) (kinases of Table 5 [11]; inhibitor 100 uM): 2

Compound: CN[C@@H]1C[C@H]2O[C@@](C)([C@@H]1OC)n1c3ccccc3c3c4c(c5c6ccccc6n2c5c31)C(=O)NC4 [Staurosporine]
- Inhibition Results (Level) (kinases of Table 5 [2]; inhibitor 21.5 uM): 2
- Inhibition level (kinases of Table 5 [9]): 2
- Inhibition Results (Level) (kinases of Table 5 [11]; inhibitor 21.5 uM): 0
